Results taken from PubChem BioAssay (NCI).
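Interpolation was linear, between the two tested concentrations surrounding the appropriate level; five concentrations were tested over 48 hours in 96-well plates. TGI marks complete inhibition of growth.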

Key:
Experiment in all cases: NCI tumour cell line growth inhibition, 48 h
[1] = system: MOLT-4 leukemia
[2] = system: RPMI-8226 leukemia
[3] = system: CAKI-1 renal
[4] = system: HT29 colon
[5] = system: MDA-MB-231 breast
[6] = system: MALME-3M melanoma
[7] = system: SK-MEL-5 melanoma
[8] = system: UO-31 renal
[9] = system: IGROV1 ovarian
[10] = system: OVCAR-4 ovarian
[11] = system: TK-10 renal
[12] = system: SW-620 colon
[13] = system: ACHN renal
[14] = system: BT-549 breast
[15] = system: LOX IMVI melanoma
[16] = system: HOP-92 NSCLC
[17] = system: CCRF-CEM leukemia
[18] = system: HS 578T breast
[19] = system: MCF7 breast
[20] = system: HL-60(TB) leukemia
[21] = system: UACC-257 melanoma
[22] = system: HCT-15 colon
[23] = system: HCT-116 colon
[24] = system: NCI-H23 lung
[25] = system: 786-0 renal
[26] = system: NCI-H460 lung
[27] = system: SNB-75 CNS
[28] = system: SK-MEL-28 melanoma
[29] = system: SR leukemia
[30] = system: NCI/ADR-RES ovarian
[31] = system: HOP-62 NSCLC
[32] = system: OVCAR-3 ovarian
[33] = system: SK-MEL-2 melanoma
[34] = system: EKVX NSCLC
[35] = system: SK-OV-3 ovarian
[36] = system: NCI-H226 lung
[37] = system: A498 renal
[38] = system: OVCAR-5 ovarian
[39] = system: KM12 colon
[40] = system: UACC-62 melanoma
[41] = system: T-47D breast
[42] = system: PC-3 prostate
[43] = system: NCI-H522 lung
[44] = system: K-562 leukemia
[45] = system: SF-295 CNS
[46] = system: U251 CNS
[47] = system: MDA-MB-435
[48] = system: MDA-N
[49] = system: SF-268 CNS
[50] = system: SNB-19 CNS
[51] = system: OVCAR-8 ovarian
[52] = system: DU-145 prostate
[53] = system: RXF 393 renal
[54] = system: SN12C renal
[55] = system: M14 melanoma
[56] = system: A549 NSCLC
[57] = system: SF-539 CNS
[58] = system: COLO 205 colon

Measured: TGI

O=C1c2ccccc2-c2ccc(NC(=O)C3CCCCC3C(=O)O)cc21 (stereo not drawn)
> 100 µM: all assays above
